Laboratory results reported in patent US20260137819A1 (Radionetics Oncology, Inc., priority 2022, published 2026).

biological target: T1, human follicle-stimulating hormone receptor (FSHR) (Homo sapiens, UniProt P23945); experiment: Measurement of agonist cAMP production by activation of human FSHR; type: cell-based; conditions: CHO-K1 human FSHR cells, 30 minutes at 37° C., HTRF cAMP kit; read-out: hFSHR Agonist cAMP EC50
T1 construct: host or cells: CHO-K1
T1 sequence (P23945 18-695): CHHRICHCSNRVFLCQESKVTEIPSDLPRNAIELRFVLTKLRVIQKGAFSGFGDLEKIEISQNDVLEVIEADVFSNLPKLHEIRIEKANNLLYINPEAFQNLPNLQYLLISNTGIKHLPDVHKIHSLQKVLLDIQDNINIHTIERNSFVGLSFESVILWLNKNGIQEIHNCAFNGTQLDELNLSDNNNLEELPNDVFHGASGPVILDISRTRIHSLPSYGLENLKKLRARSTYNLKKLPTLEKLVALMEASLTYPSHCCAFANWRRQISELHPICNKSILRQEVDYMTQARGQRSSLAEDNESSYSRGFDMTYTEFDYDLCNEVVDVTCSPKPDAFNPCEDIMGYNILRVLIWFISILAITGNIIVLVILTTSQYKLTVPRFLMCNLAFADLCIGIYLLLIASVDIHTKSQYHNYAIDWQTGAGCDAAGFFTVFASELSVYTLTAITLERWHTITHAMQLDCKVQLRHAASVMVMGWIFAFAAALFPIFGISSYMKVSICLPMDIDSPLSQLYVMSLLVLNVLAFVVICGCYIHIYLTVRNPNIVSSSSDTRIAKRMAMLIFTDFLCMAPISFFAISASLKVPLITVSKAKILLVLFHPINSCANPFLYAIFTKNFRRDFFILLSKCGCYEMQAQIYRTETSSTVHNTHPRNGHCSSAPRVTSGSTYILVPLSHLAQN
In short: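 cAMP output was measured by HTRF after 30 min at 37 °C agonist exposure (0–10,000 nM final) in stably FSHR-transfected CHO-K1 cells. Lysate cAMP was read off a standard curve and fitted to obtain half-maximal EC50.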

| Structure (SMILES) | EC50 [nM] |
| --- | --- |
| COc1cc2c(cc1-c1cncc(NC(=O)CCOCCOCCNC(=O)[C@H]3O[C@@H](CNC(=O)CN4CCN(CC(=O)O)CCN(CC(=O)O)CCN(CC(=O)O)CC4)[C@H](O)[C@@H](O)[C@H]3O)c1)-c1c(c(C(=O)N3CCOCC3(C)C)nn1-c1cc(Cl)cc(Cl)c1)CO2 [Compound 54A, indium (III) 2,2′,2″-(10-(2-((((2S,3R,4R,5R,6S)-6-((2-(2-(3-((5-(1-(3,5-dichlorophenyl)-3-(3,3-dimethylmorpholine-4-carbonyl)-7-methoxy-1,4-dihydrochromeno[4,3-c]pyrazol-8-yl)pyridin-3-yl)amino)-3-oxopropoxy)ethoxy)ethyl)carbamoyl)-3,4,5-trihydroxytetrahydro-2H-pyran-2-yl)methyl)amino)-2-oxoethyl)-1,4,7,10-tetraazacyclododecane-1,4,7-triyl)triacetate] | 10 to 100 |
| COc1cc2c(cc1-c1cncc(NC(=O)CNC(=O)CC[C@@H](NC(=O)CNC(=O)CN3CCN(CC(=O)O)CCN(CC(=O)O)CCN(CC(=O)O)CC3)C(=O)O)c1)-c1c(c(C(=O)N3CCOCC3(C)C)nn1-c1cc(Cl)cc(Cl)c1)CO2 [Compound 55, (R)-2,2′,2″-(10-(2-((2-((1-carboxy-4-((2-((5-(1-(3,5-dichlorophenyl)-3-(3,3-dimethylmorpholine-4-carbonyl)-7-methoxy-1,4-dihydrochromeno[4,3-c]pyrazol-8-yl)pyridin-3-yl)amino)-2-oxoethyl)amino)-4-oxobutyl)amino)-2-oxoethyl)amino)-2-oxoethyl)-1,4,7,10-tetraazacyclododecane-1,4,7-triyl)triacetic acid--2,2,2-trifluoroacetic acid (1/1)] | 10 to 100 |
| COc1cc2c(cc1-c1cncc(NC(=O)CNC(=O)[C@H](CCC(=O)NC[C@H](O)[C@@H](O)[C@H](O)[C@H](O)CO)NC(=O)CN3CCN(CC(=O)O)CCN(CC(=O)O)CCN(CC(=O)O)CC3)c1)-c1c(c(C(=O)N3CCOCC3(C)C)nn1-c1cc(Cl)cc(Cl)c1)CO2 [Compound 56, 2,2′,2″-(10-(2-(((S)-1-((2-((5-(1-(3,5-dichlorophenyl)-3-(3,3-dimethylmorpholine-4-carbonyl)-7-methoxy-1,4-dihydrochromeno[4,3-c]pyrazol-8-yl)pyridin-3-yl)amino)-2-oxoethyl)amino)-1,5-dioxo-5-(((2S,3R,4R,5R)-2,3,4,5,6-pentahydroxyhexyl)amino)pentan-2-yl)amino)-2-oxoethyl)-1,4,7,10-tetraazacyclododecane-1,4,7-triyl)triacetic acid--2,2,2-trifluoroacetic acid (1/1)] | 10 to 100 |
| COc1cc2c(cc1-c1cncc(NC(=O)CCCNC(=O)CCOCCNC(=O)CN3CCN(CC(=O)O)CCN(CC(=O)O)CCN(CC(=O)O)CC3)c1)-c1c(c(C(=O)N3CCOCC3(C)C)nn1-c1cc(F)cc(F)c1)CO2 [Compound 57, 2,2′,2″-(10-(2-((2-(3-((4-((5-(1-(3,5-difluorophenyl)-3-(3,3-dimethylmorpholine-4-carbonyl)-7-methoxy-1,4-dihydrochromeno[4,3-c]pyrazol-8-yl)pyridin-3-yl)amino)-4-oxobutyl)amino)-3-oxopropoxy)ethyl)amino)-2-oxoethyl)-1,4,7,10-tetraazacyclododecane-1,4,7-triyl)triacetic acid--2,2,2-trifluoroacetic acid (1/1)] | 10 to 100 |
| COc1cc2c(cc1-c1cncc(NC(=O)CCCNC(=O)[C@H](N)CCCCNC(=O)CN3CCN(CC(=O)O)CCN(CC(=O)O)CCN(CC(=O)O)CC3)c1)-c1c(c(C(=O)N3CCOCC3(C)C)nn1-c1cc(F)cc(F)c1)CO2 [Compound 58, (R)-2,2′,2″-(10-(2-((5-amino-6-((4-((5-(1-(3,5-difluorophenyl)-3-(3,3-dimethylmorpholine-4-carbonyl)-7-methoxy-1,4-dihydrochromeno[4,3-c]pyrazol-8-yl)pyridin-3-yl)amino)-4-oxobutyl)amino)-6-oxohexyl)amino)-2-oxoethyl)-1,4,7,10-tetraazacyclododecane-1,4,7-triyl)triacetic acid--2,2,2-trifluoroacetic acid (1/1)] | 10 to 100 |
| COc1cc2c(cc1-c1cncc(NC(=O)CN(C)C(=O)CN(C)C(=O)CN(C)C(=O)CN(C)C(=O)CN(C)C(=O)CCNC(=O)CN3CCN(CC(=O)O)CCN(CC(=O)O)CCN(CC(=O)O)CC3)c1)-c1c(c(C(=O)N3CCOCC3(C)C)nn1-c1cc(F)cc(F)c1)CO2 [Compound 59] | > 100 |
| COc1cc2c(cc1-c1cncc(NC(=O)CCC(=O)N(CCOCCOCCC(=O)O)C3CCN(C(=O)CN4CCN(CC(=O)O)CCN(CC(=O)O)CCN(CC(=O)O)CC4)CC3)c1)-c1c(c(C(=O)N3CCOCC3(C)C)nn1-c1cc(F)cc(F)c1)CO2 [Compound 60, 2,2′,2″-(10-(2-(4-(N-(2-(2-(2-carboxyethoxy)ethoxy)ethyl)-4-((5-(1-(3,5-difluorophenyl)-3-(3,3-dimethylmorpholine-4-carbonyl)-7-methoxy-1,4-dihydrochromeno[4,3-c]pyrazol-8-yl)pyridin-3-yl)amino)-4-oxobutanamido)piperidin-1-yl)-2-oxoethyl)-1,4,7,10-tetraazacyclododecane-1,4,7-triyl)triacetic acid--formic acid (1/1)] | 10 to 100 |
| COc1cc2c(cc1-c1cncc(NC(=O)CNC(=O)CC[C@@H](NC(=O)CN3CCN(CC(=O)O)CCN(CC(=O)O)CCN(CC(=O)O)CC3)C(=O)O)c1)-c1c(c(C(=O)N3CCOCC3(C)C)nn1-c1cc(F)cc(F)c1)CO2 [Compound 61, (R)-2,2′,2″-(10-(2-((1-carboxy-4-((2-((5-(1-(3,5-difluorophenyl)-3-(3,3-dimethylmorpholine-4-carbonyl)-7-methoxy-1,4-dihydrochromeno[4,3-c]pyrazol-8-yl)pyridin-3-yl)amino)-2-oxoethyl)amino)-4-oxobutyl)amino)-2-oxoethyl)-1,4,7,10-tetraazacyclododecane-1,4,7-triyl)triacetic acid] | 10 to 100 |
| COc1cc2c(cc1-c1cncc(NCCCNC(=O)CCOCCNC(=O)CN3CCN(CC(=O)O)CCN(CC(=O)O)CCN(CC(=O)O)CC3)c1)-c1c(c(C(=O)N3CCOCC3(C)C)nn1-c1cc(F)cc(F)c1)CO2 [Compound 62] | 10 to 100 |
| COc1cc2c(cc1-c1cccc(NC(=O)C3CCC(CNC(=O)C(CS(=O)(=O)O)NC(=O)CN4CCN(CC(=O)O)CCN(CC(=O)O)CCN(CC(=O)O)CC4)CC3)c1)-c1c(c(C(=O)N3CCOCC3(C)C)nn1-c1cc(Cl)cc(Cl)c1)CO2 [Compound 65, 2,2′,2″-(10-(2-(((R)-1-((((1r,4R)-4-((3-(1-(3,5-dichlorophenyl)-3-(3,3-dimethylmorpholine-4-carbonyl)-7-methoxy-1,4-dihydrochromeno[4,3-c]pyrazol-8-yl)phenyl)carbamoyl)cyclohexyl)methyl)amino)-1-oxo-3-sulfopropan-2-yl)amino)-2-oxoethyl)-1,4,7,10-tetraazacyclododecane-1,4,7-triyl)triacetic acid] | 10 to 100 |
| COc1cc2c(cc1-c1cccc(NC(=O)CN3CCC(NC(=O)[C@H](CS(=O)(=O)O)NC(=O)CN4CCN(CC(=O)O)CCN(CC(=O)O)CCN(CC(=O)O)CC4)CC3)c1)-c1c(c(C(=O)N3CCOCC3(C)C)nn1-c1cc(Cl)cc(Cl)c1)CO2 [Compound 66] | 10 to 100 |
